Data from ChEMBL document CHEMBL5223189, “Discovery of Selective Aldehyde Dehydrogenase Inhibitors for the Treatment of Cancer” (ACS Med Chem Lett, 2023).

Key:
Retinal dehydrogenase 2 = target: T1, Retinal dehydrogenase 2 (Homo sapiens, UniProt O94788); assay: Inhibition of full length human ALDH1A2 using propionaldehyde as substrate preincubated for 30 mins followed by substrate addition and measured after 30 mins in presence of NAD by luminescence microplate reader analysis
T1 sequence (O94788 whole entry): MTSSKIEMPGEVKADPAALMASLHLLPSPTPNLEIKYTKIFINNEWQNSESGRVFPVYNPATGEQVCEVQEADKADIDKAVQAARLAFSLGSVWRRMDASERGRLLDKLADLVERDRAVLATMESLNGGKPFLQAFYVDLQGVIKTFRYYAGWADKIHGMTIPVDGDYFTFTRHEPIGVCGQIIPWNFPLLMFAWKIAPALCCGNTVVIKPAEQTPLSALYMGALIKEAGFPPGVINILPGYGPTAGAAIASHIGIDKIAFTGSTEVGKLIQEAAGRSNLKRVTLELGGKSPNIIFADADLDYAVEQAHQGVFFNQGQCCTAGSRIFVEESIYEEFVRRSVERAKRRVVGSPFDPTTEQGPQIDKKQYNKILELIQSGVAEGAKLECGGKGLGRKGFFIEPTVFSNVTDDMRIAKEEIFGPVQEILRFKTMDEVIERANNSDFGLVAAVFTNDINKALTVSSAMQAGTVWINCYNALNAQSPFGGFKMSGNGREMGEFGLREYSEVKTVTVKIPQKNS

[1] = target: T2, Aldehyde dehydrogenase, mitochondrial (Homo sapiens, UniProt P05091); assay: Inhibition of full length human ALDH2 using propionaldehyde as substrate preincubated for 30 mins followed by substrate addition and measured after 30 mins in presence of NAD by luminescence microplate reader analysis
T2 sequence (P05091 whole entry): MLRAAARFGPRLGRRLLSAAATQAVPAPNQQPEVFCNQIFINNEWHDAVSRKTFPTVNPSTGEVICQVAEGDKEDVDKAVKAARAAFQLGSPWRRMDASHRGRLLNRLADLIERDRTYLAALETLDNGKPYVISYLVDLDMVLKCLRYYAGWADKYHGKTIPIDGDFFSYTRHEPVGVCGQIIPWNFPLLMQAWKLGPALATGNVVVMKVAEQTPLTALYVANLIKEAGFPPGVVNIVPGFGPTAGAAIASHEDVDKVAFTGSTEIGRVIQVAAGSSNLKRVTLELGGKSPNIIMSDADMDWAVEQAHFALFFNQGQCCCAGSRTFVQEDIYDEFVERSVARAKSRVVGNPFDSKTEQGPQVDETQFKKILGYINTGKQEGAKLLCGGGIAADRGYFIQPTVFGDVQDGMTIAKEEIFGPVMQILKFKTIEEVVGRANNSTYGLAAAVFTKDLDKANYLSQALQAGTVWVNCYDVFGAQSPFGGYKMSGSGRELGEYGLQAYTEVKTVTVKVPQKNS

[2] = target: T3, Aldehyde dehydrogenase 1A1 (Homo sapiens, UniProt P00352); assay: Inhibition of full length human ALDH1A1 using propionaldehyde as substrate preincubated for 30 mins followed by substrate addition and measured after 30 mins in presence of NAD by luminescence microplate reader analysis
T3 sequence (P00352 whole entry): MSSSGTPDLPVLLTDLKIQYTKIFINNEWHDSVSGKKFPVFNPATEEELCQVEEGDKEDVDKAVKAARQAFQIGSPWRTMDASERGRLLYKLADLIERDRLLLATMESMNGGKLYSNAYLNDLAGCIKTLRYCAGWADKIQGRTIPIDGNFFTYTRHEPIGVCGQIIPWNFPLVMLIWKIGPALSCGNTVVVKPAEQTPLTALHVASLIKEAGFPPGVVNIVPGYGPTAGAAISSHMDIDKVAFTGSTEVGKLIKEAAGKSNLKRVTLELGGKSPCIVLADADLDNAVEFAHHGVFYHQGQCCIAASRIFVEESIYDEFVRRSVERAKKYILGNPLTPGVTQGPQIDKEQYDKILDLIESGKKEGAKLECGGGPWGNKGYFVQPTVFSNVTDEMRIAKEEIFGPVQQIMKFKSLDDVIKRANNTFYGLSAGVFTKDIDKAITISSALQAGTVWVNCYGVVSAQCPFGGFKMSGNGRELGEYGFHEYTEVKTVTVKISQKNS

[3] = target: T4, Retinaldehyde dehydrogenase 3 (Homo sapiens, UniProt P47895); assay: Inhibition of full length human ALDH1A3 using propionaldehyde as substrate preincubated for 30 mins followed by substrate addition and measured after 30 mins in presence of NAD by luminescence microplate reader analysis
T4 sequence (P47895 whole entry): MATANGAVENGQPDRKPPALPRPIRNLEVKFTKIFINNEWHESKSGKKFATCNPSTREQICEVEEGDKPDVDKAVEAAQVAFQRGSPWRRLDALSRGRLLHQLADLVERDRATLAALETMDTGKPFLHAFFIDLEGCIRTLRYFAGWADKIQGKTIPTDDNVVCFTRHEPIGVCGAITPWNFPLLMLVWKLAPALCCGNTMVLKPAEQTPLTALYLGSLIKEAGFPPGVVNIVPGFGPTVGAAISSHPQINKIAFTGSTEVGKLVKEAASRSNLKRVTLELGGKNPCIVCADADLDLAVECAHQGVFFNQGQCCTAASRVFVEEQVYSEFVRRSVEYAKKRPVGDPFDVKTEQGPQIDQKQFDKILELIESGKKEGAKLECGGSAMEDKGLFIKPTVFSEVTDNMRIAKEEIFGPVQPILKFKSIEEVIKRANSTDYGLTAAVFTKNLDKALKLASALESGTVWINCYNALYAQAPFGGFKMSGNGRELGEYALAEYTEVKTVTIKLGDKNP

[4] = target: T4, Retinaldehyde dehydrogenase 3; assay: Inhibition of human ALDH1A3 in human WM266-4 cells incubated for 60 mins using BODIPY-aminoacetaldehyde as substrate in presence of ALDEFLUOR assay buffer by Hoechst 33342 staining based cell Insight fluorescent microscopic anlaysis

SMILES: O=C1CCc2cc(OCCN3CCC[C@@H]3c3cccc(F)c3)ccc2N1
- IC50 (Retinal dehydrogenase 2): 0.1 µM
- IC50 [1]: ≥ 100 µM
- IC50 [2]: ≥ 100 µM
- IC50 [3]: < 0.1 µM
- IC50 [4]: < 0.1 µM

SMILES: O=C1CCc2cc(NC(=O)c3sc(N4CCNCC4)nc3-c3cccc(F)c3)ccc2N1
- IC50 (Retinal dehydrogenase 2): 10 µM
- IC50 [1]: ≥ 100 µM
- IC50 [2]: ≥ 100 µM
- IC50 [3]: < 0.1 µM
- IC50 [4]: < 0.1 µM

SMILES: CN(C)c1nc(-c2cccc(F)c2)c(C(=O)Nc2ccc3c(c2)CCC(=O)N3)s1
- IC50 (Retinal dehydrogenase 2): 1 µM
- IC50 [1]: ≥ 100 µM
- IC50 [2]: ≥ 100 µM
- IC50 [3]: < 0.1 µM
- IC50 [4]: < 0.1 µM

SMILES: O=C1CCc2cc(NC(=O)c3sc(N4CC(O)C4)nc3-c3cccc(F)c3)ccc2N1
- IC50 (Retinal dehydrogenase 2): ≥ 100 µM
- IC50 [1]: ≥ 100 µM
- IC50 [2]: ≥ 100 µM
- IC50 [3]: < 0.1 µM
- IC50 [4]: < 0.1 µM

SMILES: O=C1CCc2cc(NC(=O)c3scnc3-c3cccc(F)c3)ccc2N1
- IC50 (Retinal dehydrogenase 2): 1 µM
- IC50 [1]: ≥ 100 µM
- IC50 [2]: ≥ 100 µM
- IC50 [3]: < 0.1 µM
- IC50 [4]: < 0.1 µM

SMILES: O=C1CCc2cc(OCCN3CCCC3c3cccc(F)c3)ccc2N1 (stereo not given)
- IC50 (Retinal dehydrogenase 2): 0.1 µM
- IC50 [1]: ≥ 100 µM
- IC50 [2]: ≥ 100 µM
- IC50 [3]: < 0.1 µM
- IC50 [4]: < 0.1 µM

SMILES: O=C1CCc2cc(NC(=O)c3sc(N4CCOCC4)nc3-c3cccc(F)c3)ccc2N1
- IC50 (Retinal dehydrogenase 2): ≥ 100 µM
- IC50 [1]: ≥ 100 µM
- IC50 [2]: ≥ 100 µM
- IC50 [3]: < 0.1 µM
- IC50 [4]: < 0.1 µM

SMILES: O=C1CCc2cc(NC(=O)c3scnc3-c3ccccc3F)ccc2N1
- IC50 (Retinal dehydrogenase 2): 1 µM
- IC50 [1]: ≥ 100 µM
- IC50 [2]: ≥ 100 µM
- IC50 [3]: < 0.1 µM
- IC50 [4]: < 0.1 µM
